Counter-ions that a name gives are not always drawn. Like-named read-outs stand apart in the source and are kept apart here.
What was measured:
[1] = Conductivity of donor solution; assay type: physicochemical
[2] = for Lagtime / Flux: iontophoresis (ITP), donor pH 5.5, 50 mM HEPES; for Flux: steady state when current is present, 0.5 mA/sq.cm; for Flux of nicotine, iontophoresis of salt versus passive permeation of nicotine base / Lagtime during iontophoresis versus passive permeation of nicotine base: iontophoresis at pH 5.5 versus passive base pH 8, FIG. 8; for Iontophoretic flux of nicotine versus passive delivery of nicotine base: 500 mM citrate buffer with 50 mM NaCl, current terminated after 4 hours, FIG. 3; for Flux of nicotine after termination of current: current terminated at 4 hrs, 50 mM HEPES, FIG. 6
Method: The following methodology was employed in the examples described herein: Dermatomed human skin stored at −80° C. was thawed just prior to use. Each permeation experiment consisted of four replicates. The skin for each replicate was obtained from a different donor so that the variation was randomized. Skin was mounted on Valia-Chien (horizontal) diffusion cells for these in vitro permeation studies, with stratum corneum side facing the donor side. The receptor compartment was filled with pH 7.4 phosphate buffer (50 mM). […] Prior to use, both donor and receptor solutions were degassed by helium sparging. The temperature of the water bath was set to 32° C. Both donor and receptor compartments were continuously stirred. For iontophoresis, silver wire was used as the anode in the donor compartment and silver/silver chloride as cathode in the receptor compartment. A current of 0.5 mA/sq.cm was applied for 4 hours. Samples taken periodically from the receptor compartment were analyzed by HPLC assay. An Xterra RP18 column was used and the detection wavelength was 261 nm. The mobile phase was 85:15 buffer:acetonitrile, pumped at 1 mL/min and retention time was about 3 minutes.
Iontophoretic current was terminated after 4 hours.
Iontophoretic delivery of nicotinium dihydrochloride salt was also studied in 50 mM HEPES buffer, adjusted to pH 5.5 with NaOH.
The flux is calculated at steady state when current is present for the iontophoresis experiments.

[3] = donor solution for iontophoresis, donor pH 5.5, 50 mM HEPES

Compound | Conductivity [1, 3] | Lagtime [2] | Flux [2] | further results
Br.Br.CN1CCCC1c1cccnc1 (centres unmarked) [HBr] | 25.9 mS/cm | 63 min | 0.2771 mg/cm^2-hr | –
CN1CCCC1c1cccnc1.O=C(O)/C=C\C(=O)O (centres unmarked) [Maleate, nicotine maleate] | 9.31 mS/cm | 4 min | 0.2867 mg/cm^2-hr | Flux of nicotine, iontophoresis of salt versus passive permeation of nicotine base [2]: increased; Lagtime during iontophoresis versus passive permeation of nicotine base [2]: reduced
nicotine hemisulfate | – | – | – | Iontophoretic flux of nicotine versus passive delivery of nicotine base [2]: less than the flux from the passive delivery of nicotine base at pH 8
CN1CCCC1c1cccnc1.O=S(=O)(O)O.O=S(=O)(O)O (centres unmarked) [SO4] | 20 mS/cm | 46 min | 0.2554 mg/cm^2-hr | –
CN1CCCC1c1cccnc1.O=C(O)CC(O)(CC(=O)O)C(=O)O [Citrate, nicotine citrate] | 13.3 mS/cm | 9 min | 0.332 mg/cm^2-hr | Flux of nicotine, iontophoresis of salt versus passive permeation of nicotine base [2]: increased; Lagtime during iontophoresis versus passive permeation of nicotine base [2]: reduced
CN1CCCC1c1cccnc1 (centres unmarked) [Base, nicotine] | – | – | – | Conductivity ([1]; donor solution for passive permeation, donor pH 8): 4.73 mS/cm; Passive transport of nicotine, pH 8 versus pH 5.5 (non-ionized form at pH 8 compared to monocationic form at pH 5.5): higher at pH 8; Lagtime (passive permeation, donor pH 8): 87 min; Flux (passive permeation, donor pH 8, 1% nicotine, human skin): 0.1053 mg/cm^2-hr; Nicotine permeation, iontophoresis versus passive delivery ([2]; both conditions evaluated (pH 5.5 and pH 8 buffers), FIGS. 1 and 2): Iontophoresis enhanced nicotine permeation compared to passive nicotine delivery
CN1CCC[C@H]1c1cccnc1 [HCl, nicotinium dihydrochloride] | 15.4 mS/cm | 22 min | 0.2236 mg/cm^2-hr | Conductivity of donor solution ([1]; in 50 mM HEPES buffer, pH 5.5): 15400 μmhos/cm; Flux of nicotine after termination of current [2]: decreased sharply
CN1CCCC1c1cccnc1.O=C(O)C(O)C(O)C(=O)O (centres unmarked) [Bitartrate, nicotine bitartrate] | 16.3 mS/cm | 10 min | 0.2073 mg/cm^2-hr | Conductivity of donor solution ([1]; in 50 mM HEPES buffer, pH 5.5): 16300 μmhos/cm; Conductivity of donor solution ([1]; in 500 mM citrate buffer): 66400 μmhos/cm; Iontophoretic flux of nicotine versus passive delivery of nicotine base [2]: less than the flux from the passive delivery of nicotine base at pH 8; Flux of nicotine after termination of current [2]: decreased sharply; Flux of nicotine, 50 mM HEPES buffer versus 500 mM citrate buffer ([2]; iontophoresis, 50 mM HEPES buffer pH 5.5): higher than the nicotine flux from a 500 mM citrate buffer
